The target in experiment [1] is Kappa-type opioid receptor (Homo sapiens, UniProt P41145). In words: Agonist activity at human kappa opioid receptor by [35S]GTP-gamma-S binding assay. Type of experiment: functional.
Experiment [2] deals with Opioid receptors; mu & kappa (Homo sapiens) (UniProt P41145+P35372). In words: Selectivity for human kappa opioid receptor over human mu opioid receptor. The class given is functional.
The target in experiment [3] is Opioid receptors; delta & kappa (Homo sapiens) (UniProt P41145+P41143). Description: Selectivity for human kappa opioid receptor over human delta opioid receptor. The class given is functional.
Chain of Opioid receptors; delta & kappa (Homo sapiens) (P41143 whole entry, looked up): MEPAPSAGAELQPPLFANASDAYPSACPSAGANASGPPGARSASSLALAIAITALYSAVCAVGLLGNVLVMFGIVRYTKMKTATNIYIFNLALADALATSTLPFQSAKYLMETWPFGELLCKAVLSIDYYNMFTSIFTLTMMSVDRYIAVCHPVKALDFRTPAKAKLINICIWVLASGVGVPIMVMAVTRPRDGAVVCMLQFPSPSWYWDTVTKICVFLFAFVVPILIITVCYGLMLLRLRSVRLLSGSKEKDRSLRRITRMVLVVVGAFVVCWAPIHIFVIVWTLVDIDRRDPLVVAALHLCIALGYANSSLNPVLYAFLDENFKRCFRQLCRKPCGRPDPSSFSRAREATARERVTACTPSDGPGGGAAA
Chain of Opioid receptors; delta & kappa (Homo sapiens) (P41145 whole entry, looked up): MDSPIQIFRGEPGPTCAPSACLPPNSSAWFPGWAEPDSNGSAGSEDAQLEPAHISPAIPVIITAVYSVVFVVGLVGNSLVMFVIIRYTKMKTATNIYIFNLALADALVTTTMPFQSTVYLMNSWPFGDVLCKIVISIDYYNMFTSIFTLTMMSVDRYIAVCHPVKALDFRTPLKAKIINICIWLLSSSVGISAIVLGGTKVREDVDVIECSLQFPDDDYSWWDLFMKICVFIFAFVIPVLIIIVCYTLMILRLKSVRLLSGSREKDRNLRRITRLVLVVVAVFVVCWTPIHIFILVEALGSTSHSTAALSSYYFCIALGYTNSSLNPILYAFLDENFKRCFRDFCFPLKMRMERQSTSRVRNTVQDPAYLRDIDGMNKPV
A further experiment deals with Cytochrome P450 2D6 (Homo sapiens, UniProt P10635). Description: Inhibition of CYP2D6. Type of experiment: ADME.
Chain of Cytochrome P450 2D6 (P10635 whole entry): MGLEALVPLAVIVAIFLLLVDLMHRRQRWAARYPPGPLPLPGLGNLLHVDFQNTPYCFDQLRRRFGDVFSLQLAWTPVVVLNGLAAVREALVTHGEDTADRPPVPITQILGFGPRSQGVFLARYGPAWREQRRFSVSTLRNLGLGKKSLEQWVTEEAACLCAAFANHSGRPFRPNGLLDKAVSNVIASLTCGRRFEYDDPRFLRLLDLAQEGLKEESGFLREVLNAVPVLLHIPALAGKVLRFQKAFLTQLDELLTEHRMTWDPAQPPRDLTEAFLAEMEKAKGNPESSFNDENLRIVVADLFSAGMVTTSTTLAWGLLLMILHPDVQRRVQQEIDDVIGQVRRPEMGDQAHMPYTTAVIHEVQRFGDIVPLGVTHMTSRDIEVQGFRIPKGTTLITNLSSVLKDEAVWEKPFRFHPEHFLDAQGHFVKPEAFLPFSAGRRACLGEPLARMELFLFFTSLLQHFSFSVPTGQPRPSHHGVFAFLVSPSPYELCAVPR
In the next experiment the test system is Rattus norvegicus. Description: Antinociceptive activity in rat at 300 ug, sc by formalin-induced flinching assay. The class given is functional.
The test system of another experiment is Mus musculus. In words: Analgesic activity in sc dosed mouse assessed as inhibition of acetic acid-induced writhing. Type of experiment: functional.

Chain of Kappa-type opioid receptor (P41145 whole entry): as the sequence (P41145 whole entry, looked up) above
Chain of Opioid receptors; mu & kappa (Homo sapiens) (P35372 whole entry, looked up): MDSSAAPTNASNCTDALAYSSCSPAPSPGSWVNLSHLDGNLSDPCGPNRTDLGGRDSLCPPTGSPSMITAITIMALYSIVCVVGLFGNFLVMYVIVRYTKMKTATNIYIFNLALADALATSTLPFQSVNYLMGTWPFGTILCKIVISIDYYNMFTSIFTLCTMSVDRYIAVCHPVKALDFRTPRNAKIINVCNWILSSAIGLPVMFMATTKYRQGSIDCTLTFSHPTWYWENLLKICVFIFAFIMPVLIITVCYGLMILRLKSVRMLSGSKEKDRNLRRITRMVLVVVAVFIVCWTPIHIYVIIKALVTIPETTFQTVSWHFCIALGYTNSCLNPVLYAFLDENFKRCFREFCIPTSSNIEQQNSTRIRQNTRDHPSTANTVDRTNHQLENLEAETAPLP
Chain of Opioid receptors; mu & kappa (Homo sapiens) (P41145 whole entry, looked up): as the sequence (P41145 whole entry, looked up) above

Turning to `CN(C(=O)CC(=O)Nc1nccs1)[C@H](CN1CC[C@H](O)C1)c1ccccc1`, affinity in experiment [1] was put at a Ki of 0.53 nM. The figures for the Ratio Ki in experiment [2] and in experiment [3] were 180 and 71, respectively. The compound also returned an IC50 against Cytochrome P450 2D6 of 700 nM.
`CN(C(=O)CCC(=O)Nc1cccnc1)[C@H](CN1CC[C@H](O)C1)c1ccccc1` had an inhibitory constant (Ki) in experiment [1] of 280 nM. Further, the Ratio Ki in experiment [3] was determined as 5. Besides, the 50% inhibitory concentration (IC50) against Cytochrome P450 2D6 is above 10000 nM.
Consider `CN(C(=O)CC(=O)NCc1ccccc1)[C@H](CN1CC[C@H](O)C1)c1ccccc1`, for which the affinity in experiment [1], expressed as Ki, was 15 nM. The Ratio Ki in experiment [2] is 120; in experiment [3], 40. This compound came in with an IC50 against Cytochrome P450 2D6 of 3200 nM.
For `CN(C(=O)CC(=O)Nc1cccnc1)[C@H](CN1CC[C@H](O)C1)c1ccccc1` the same measures were 1.3 nM, 450, 15 and above 10000 nM.
The matching figures for `CN(C(=O)NCC(=O)Nc1ccccc1)[C@H](CN1CC[C@H](O)C1)c1ccccc1`: 6.5 nM, 110, 8.7 and 5100 nM.
`CN(C(=O)CC(=O)Nc1ccccc1)[C@H](CN1CC[C@H](O)C1)c1ccccc1` had an Activity with Rattus norvegicus of 93%. In addition, in the experiment on Mus musculus, the ED50 is 0.03 mg/kg. Besides, the Ki in experiment [1] is 0.27 nM. For the same compound, the Ratio Ki was found to be 120 in experiment [2] and 25 in experiment [3]. The IC50 against Cytochrome P450 2D6 was 5300 nM.
In turn, `CN(C(=O)CC(=O)Nc1ccc(CNS(C)(=O)=O)cc1)[C@H](CN1CC[C@H](O)C1)c1ccccc1` gave a Ki in experiment [1] of 96 nM. Moreover, the Ratio Ki was determined as 4.3 in experiment [2] and 10 in experiment [3]. On Cytochrome P450 2D6, this compound yielded a half-maximal inhibitory concentration (IC50) of 5400 nM.
The matching figures for `CN(C(=O)CC(=O)Nc1ccc(NS(C)(=O)=O)cc1)[C@H](CN1CC[C@H](O)C1)c1ccccc1`: 29 nM, 4.8, 39 and 10000 nM.
`CN(C(=O)CCC(=O)Nc1nccs1)[C@H](CN1CC[C@H](O)C1)c1ccccc1`: the inhibition constant Ki in experiment [1] came out at 23 nM. Further, the Ratio Ki in experiment [3] came to 14. In addition, the IC50 on Cytochrome P450 2D6 was 3400 nM.
For `CN(C(=O)CCC(=O)Nc1ccccc1)[C@H](CN1CC[C@H](O)C1)c1ccccc1` the same measures were 6 nM, 220 and 8600 nM.

These data come from ChEMBL document CHEMBL1144622, “Novel malonamide derivatives as potent kappa opioid receptor agonists” (Bioorg Med Chem Lett, 2007).
